Test results published in BindingDB's records for doi:10.1124/jpet.105.097303 (Temple University, 2006).

Assays:
[1] = target: Rho-associated protein kinase 2 (Rattus norvegicus, UniProt Q62868)
[2] = target: T1, cGMP-dependent protein kinase 1 (Homo sapiens, UniProt Q13976)
T1 sequence (Q13976 whole entry): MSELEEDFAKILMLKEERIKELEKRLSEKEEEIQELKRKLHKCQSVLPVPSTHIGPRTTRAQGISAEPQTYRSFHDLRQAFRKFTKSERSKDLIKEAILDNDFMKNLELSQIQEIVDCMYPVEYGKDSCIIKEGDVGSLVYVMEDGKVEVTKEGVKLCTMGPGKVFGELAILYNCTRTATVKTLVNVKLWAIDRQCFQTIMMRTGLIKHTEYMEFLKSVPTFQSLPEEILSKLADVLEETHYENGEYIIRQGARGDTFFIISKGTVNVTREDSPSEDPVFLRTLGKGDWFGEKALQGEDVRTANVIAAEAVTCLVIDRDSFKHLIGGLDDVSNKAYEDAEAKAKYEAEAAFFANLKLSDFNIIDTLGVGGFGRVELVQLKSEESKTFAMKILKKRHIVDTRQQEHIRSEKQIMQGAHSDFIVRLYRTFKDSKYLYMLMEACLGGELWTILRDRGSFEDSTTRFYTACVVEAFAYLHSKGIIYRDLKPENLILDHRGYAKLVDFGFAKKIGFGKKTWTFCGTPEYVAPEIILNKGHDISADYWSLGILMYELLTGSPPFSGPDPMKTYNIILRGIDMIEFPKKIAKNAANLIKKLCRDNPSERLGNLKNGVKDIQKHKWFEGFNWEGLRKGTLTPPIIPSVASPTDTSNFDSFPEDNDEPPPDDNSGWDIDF

[3] = target: cAMP-dependent protein kinase catalytic subunit beta (Rattus norvegicus, UniProt P68182)
[4] = target: Protein kinase C alpha type (Rattus norvegicus, UniProt P05696)
[5] = target: T2, 1-phosphatidylinositol 4,5-bisphosphate phosphodiesterase beta-1 (Rattus norvegicus, UniProt P10687)
T2 sequence (P10687 whole entry): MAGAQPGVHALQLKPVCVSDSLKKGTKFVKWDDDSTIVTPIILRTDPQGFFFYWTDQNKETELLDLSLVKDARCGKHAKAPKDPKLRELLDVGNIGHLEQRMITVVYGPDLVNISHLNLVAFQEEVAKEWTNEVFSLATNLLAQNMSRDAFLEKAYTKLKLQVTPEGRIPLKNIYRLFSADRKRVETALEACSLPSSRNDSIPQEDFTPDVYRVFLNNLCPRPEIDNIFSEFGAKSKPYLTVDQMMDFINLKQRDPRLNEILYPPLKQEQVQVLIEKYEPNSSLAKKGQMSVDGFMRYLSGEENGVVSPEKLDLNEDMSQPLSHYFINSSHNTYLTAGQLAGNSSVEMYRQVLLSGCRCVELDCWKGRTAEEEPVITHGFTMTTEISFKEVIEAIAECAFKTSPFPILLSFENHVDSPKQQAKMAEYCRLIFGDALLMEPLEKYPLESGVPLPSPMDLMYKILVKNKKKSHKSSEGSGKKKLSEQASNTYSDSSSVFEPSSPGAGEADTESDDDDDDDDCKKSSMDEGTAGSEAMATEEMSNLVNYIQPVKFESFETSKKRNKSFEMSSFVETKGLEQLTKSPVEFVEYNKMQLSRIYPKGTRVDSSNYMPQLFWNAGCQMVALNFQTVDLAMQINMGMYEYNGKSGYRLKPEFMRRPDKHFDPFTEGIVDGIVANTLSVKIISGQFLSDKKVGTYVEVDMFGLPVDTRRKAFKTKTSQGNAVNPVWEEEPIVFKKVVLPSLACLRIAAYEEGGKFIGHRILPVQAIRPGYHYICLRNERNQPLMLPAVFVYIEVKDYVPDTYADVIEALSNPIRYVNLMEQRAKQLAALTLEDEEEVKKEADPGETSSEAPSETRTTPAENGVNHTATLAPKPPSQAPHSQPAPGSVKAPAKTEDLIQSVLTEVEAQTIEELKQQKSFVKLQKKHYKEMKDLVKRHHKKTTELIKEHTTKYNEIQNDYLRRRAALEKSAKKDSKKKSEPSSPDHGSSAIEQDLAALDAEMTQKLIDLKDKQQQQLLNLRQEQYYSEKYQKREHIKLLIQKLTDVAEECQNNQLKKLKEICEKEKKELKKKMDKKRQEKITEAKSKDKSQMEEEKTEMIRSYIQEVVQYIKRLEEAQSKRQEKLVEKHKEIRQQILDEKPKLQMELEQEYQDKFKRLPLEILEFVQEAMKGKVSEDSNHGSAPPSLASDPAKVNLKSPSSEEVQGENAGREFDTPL

[6] = target: T3, 1-phosphatidylinositol 4,5-bisphosphate phosphodiesterase delta-4 (Rattus norvegicus, UniProt Q62711)
T3 sequence (Q62711 whole entry): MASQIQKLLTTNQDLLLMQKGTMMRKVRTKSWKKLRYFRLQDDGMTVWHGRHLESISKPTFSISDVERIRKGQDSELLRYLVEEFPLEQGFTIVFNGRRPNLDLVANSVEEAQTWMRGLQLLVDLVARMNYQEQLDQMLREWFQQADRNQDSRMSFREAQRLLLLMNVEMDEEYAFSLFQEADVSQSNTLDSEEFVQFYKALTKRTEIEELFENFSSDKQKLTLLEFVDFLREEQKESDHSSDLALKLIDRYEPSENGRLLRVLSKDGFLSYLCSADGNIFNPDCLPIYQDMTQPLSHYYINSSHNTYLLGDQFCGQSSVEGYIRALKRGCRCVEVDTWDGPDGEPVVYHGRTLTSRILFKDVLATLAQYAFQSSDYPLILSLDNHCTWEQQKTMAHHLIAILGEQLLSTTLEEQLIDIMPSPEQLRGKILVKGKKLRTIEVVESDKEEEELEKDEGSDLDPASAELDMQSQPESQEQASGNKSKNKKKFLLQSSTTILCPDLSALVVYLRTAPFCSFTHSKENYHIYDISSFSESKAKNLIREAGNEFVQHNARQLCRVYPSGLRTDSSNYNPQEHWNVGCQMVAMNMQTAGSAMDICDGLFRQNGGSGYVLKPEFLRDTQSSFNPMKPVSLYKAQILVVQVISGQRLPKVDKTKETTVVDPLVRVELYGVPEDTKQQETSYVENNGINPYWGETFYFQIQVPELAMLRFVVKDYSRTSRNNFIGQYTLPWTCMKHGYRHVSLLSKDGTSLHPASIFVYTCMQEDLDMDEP

Chain of Rho-associated protein kinase 2 (Q62868 whole entry): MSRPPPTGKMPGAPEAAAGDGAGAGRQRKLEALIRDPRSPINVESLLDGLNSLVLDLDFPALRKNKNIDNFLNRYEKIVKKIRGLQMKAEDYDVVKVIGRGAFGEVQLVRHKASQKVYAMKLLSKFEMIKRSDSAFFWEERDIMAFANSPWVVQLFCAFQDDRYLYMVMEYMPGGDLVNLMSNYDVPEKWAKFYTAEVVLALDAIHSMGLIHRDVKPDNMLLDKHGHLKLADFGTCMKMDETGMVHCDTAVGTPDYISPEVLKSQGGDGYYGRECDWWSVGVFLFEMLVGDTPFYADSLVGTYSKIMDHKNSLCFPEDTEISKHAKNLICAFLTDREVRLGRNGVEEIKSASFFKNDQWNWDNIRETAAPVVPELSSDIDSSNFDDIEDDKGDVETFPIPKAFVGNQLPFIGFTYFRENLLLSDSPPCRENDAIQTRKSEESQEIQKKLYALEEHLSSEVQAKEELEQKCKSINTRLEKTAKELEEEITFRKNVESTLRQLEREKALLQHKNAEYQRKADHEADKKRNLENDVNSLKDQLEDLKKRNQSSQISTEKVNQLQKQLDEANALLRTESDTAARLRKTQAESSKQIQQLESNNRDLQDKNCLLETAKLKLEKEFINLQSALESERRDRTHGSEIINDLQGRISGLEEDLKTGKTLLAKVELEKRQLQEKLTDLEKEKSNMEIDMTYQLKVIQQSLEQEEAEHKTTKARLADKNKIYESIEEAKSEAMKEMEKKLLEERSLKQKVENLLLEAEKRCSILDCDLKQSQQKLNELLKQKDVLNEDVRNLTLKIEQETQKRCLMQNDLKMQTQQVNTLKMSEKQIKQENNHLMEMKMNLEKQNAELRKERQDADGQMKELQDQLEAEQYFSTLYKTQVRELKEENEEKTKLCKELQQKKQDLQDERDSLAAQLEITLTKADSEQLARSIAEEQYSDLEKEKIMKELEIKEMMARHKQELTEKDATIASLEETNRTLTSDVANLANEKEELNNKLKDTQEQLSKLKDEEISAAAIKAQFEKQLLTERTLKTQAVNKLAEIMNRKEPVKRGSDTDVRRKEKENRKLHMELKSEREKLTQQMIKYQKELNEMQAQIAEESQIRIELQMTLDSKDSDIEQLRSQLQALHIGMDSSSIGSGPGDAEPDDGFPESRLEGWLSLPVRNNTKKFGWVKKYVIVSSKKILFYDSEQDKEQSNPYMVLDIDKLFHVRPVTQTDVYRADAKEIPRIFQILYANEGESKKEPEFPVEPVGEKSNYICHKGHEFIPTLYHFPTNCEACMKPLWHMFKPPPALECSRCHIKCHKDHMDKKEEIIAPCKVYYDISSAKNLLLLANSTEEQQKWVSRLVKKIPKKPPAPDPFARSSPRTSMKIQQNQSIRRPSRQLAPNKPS

Row | SMILES | Ki [1] [µM] | Ki [3] [µM] | Ki [4] [µM] | Ki [5] [µM] | also measured
1 | O=S(=O)(NCCNC/C=C/c1ccc(Br)cc1)c1cccc2cnccc12 | 0.27 | 0.05 | – | – | Ki [2]: 0.5 µM
2 | COc1ccc2c(c[n+](C)c3c4cc5c(cc4ccc23)OCO5)c1OC | – | – | 0.66 | – | –
3 | CCCCCCCCCCCCCCCCCCOC[C@H](COP(=O)([O-])OCC[N+](C)(C)C)OC [CAS_77286-66-9] | – | – | – | 5 | –
4 | NC[C@@H]1O[C@H](O[C@H]2[C@@H](O)[C@H](O[C@@H]3[C@@H](O)[C@H](N)C[C@H](N)[C@H]3O[C@H]3O[C@H](CN)[C@@H](O)[C@H](O)[C@H]3N)O[C@@H]2CO)[C@H](N)[C@@H](O)[C@@H]1O [KDR Kinase Inhibitor, 3] | – | – | – | 5 | Ki [6]: 5 µM
5 | C[C@@H](N)[C@H]1CC[C@H](C(=O)Nc2ccncc2)CC1 [Y-27632] | 0.1 | 25 | 26 | – | –
